Measured values taken from patent US9956201B2, “Compositions comprising bioreversible derivatives of hydroxy N-substituted-2-aminotetralins, and related dosage forms” (Spriaso LLC, priority 2014, dated 2018).

How the values were obtained:
[1] = Apparent lipophilicity log D at pH 7.4 (octanol / pH 7.4 surfactant free buffer); type: physicochemical
Excerpt: The log DpH=7.4 value is a log of the distribution efficiency (ratio of concentrations of the disclosed bioreversible derivatives in octanol solvent to a pH 7.4 aqueous surfactant free buffer media).
TABLE 5 summarized the intrinsic lipophilicity and apparent lipophilicity of hydroxy N-substituted-2-aminotetralins in comparison with those of some examples of the corresponding bioreversible derivatives according to the disclosure.

[2] = cited from earlier work
[3] = Pharmacokinetics of dosage forms at varied doses of Composition 1c-10 containing caprate ester A10; type: in vivo; conditions: serum rotigotine, human, oral, Composition 1c-10 with A10
Protocol: Serial blood samples were drawn at predetermined time (e.g., t=0, 12, 24, etc.) and analyzed for rotigotine concentration using a validated HPLC-MS/MS analytical method. The rotigotine Cmax, ratio of rotiogtine peak levels to rotigotine equivalent, Cmax/mg, rotiogotine Cavgt1-t2, rotigotine steady state maximum concentration, Css-max, rotigotine AUCt1-t2 and ratio of rotigotine area under the curve to rotigotine equivalent dose in mg, AUCt1-t2/mg, were calculated in the serum of the subjects. Pharmacokinetic and statistical analyses were performed on the data obtained from the subjects, the pharmacokinetic parameters were defined as follows:
[…] Serial blood samples were drawn for the human subjects at predetermined time (e.g., t=0, 12, 24, etc.) and analyzed to determine pharmacokinetic parameters in the serum of the subjects.

[4] = no method; cited from earlier work
[5] = dose 0.1 mg as rotigotine equivalent
[6] = dose 500 mg as rotigotine equivalent

| SMILES | Apparent Lipophilicity logD7.4 [1] | pKa [4] | further results |
| --- | --- | --- | --- |
| CCCN(CCc1cccs1)[C@H]1CCc2c(O)cccc2C1 [Compound A1, (S)-6-[propyl(2-thiophen-2-ylethyl)amino]-5,6,7,8-tetrahydronaphthalen-1-ol] | 1-1.9 | – | activity upon oral administration ([2]; preclinical data): zero to limited activity |
| CCCCCCCCCC(=O)Oc1cccc2c1CCC(N(CCC)CCc1cccs1)C2 (stereo not drawn) [Compound A10] | >4 | – | Mean AUC/mg [3, 5]: <1.25 × 10^−9 hr..^−1; Mean Cmax/mg [3, 5]: <1e-10 mL⁻¹; Mean AUC/mg [3, 6]: >188 × 10^−6 hr..^−1; Mean Cmax/mg [3, 6]: >1.2e-05 mL⁻¹ |
| CCCN[C@H]1CCc2c(O)cccc2C1 [Compound B1, (6S)-(−)-5-hydroxy-N-propyl-2-aminotetralin] | −0.5 | about 10.6 | – |
| CCCCCCCCCCCCCCCC(=O)Oc1cccc2c1CCC(NCCC)C2 (stereo not drawn) [Compound B5] | 6.5-7.5 | – | – |
| CCCN(CCC)C1CCc2cccc(O)c2C1 (stereo not drawn) [Compound C1, 8-hydroxy-N,N-dipropyl-2-aminotetralin] | – | about 10.54 | – |
| CCCN(CCC)C1CCc2ccc(O)cc2C1 (stereo not drawn) [Compound C2, 7-hydroxy-N,N-dipropyl-2-aminotetralin] | – | about 10.54 | – |
| CCCN(CCC)C1CCc2c(O)cccc2C1 (stereo not drawn) [Compound C3, 5-hydroxy-N,N-dipropyl-2-aminotetralin] | – | about 10.5 | – |
| CCCCCCCCCCCC(=O)Oc1cccc2c1CC(N(CCC)CCC)CC2 (stereo not drawn) [Compound C7, Laurate (C12) Ester of 8-OH-DPAT] | 6.5-7.5 | – | – |
| CCCN(CCc1cccs1)[C@H]1CCc2c(O)cccc2C1 [Compound N-0923] | – | – | bioavailability after oral administration ([2]; animal model): about 0.5% |
